Results as given in BindingDB's records for PubMed 10604951 (University of Colorado, 2000).

The molecules below were run against Glutamate receptor ionotropic, NMDA 1 (Rattus norvegicus, UniProt P35439).

Ki [µM] | Structure (SMILES)
> 10 | COC(=O)c1cc(NC(=O)N(c2ccccc2)c2ccccc2)c2c(Cl)cc(Cl)cc2n1 [DCUK-Ome]
> 10 | O=C(O)c1cc(NC(=O)N(c2ccccc2)c2ccccc2)c2c(Cl)cc(Cl)cc2n1 [DCUKA]
> 10 | NC(=O)N1c2ccccc2C=Cc2ccccc21 [5H-dibenzo[b,f]azepine-5-carboxamide]
